Data on four compounds can be found in article PMC6162447, “Engineering Gain-of-Function Analogues of the Spider Venom Peptide HNTX-I, A Potent Blocker of the hNaV1.7 Sodium Channel” (Toxins, 2018).

One experiment deals with T1, hNaV1.7 (Homo sapiens, UniProt Q15858).
T1 construct: expressed in transfected cells; host or cells: HEK 293
The experiment in a line: Whole-cell patch clamp on hNaV1.7 expressed in HEK 293 cells. It counts as cell-based. Conditions: for IC50: HEK 293 cells transfected with hNaV1.7 plus human β1 and β2 subunits, room temperature (20–25 °C), 50 ms depolarization to −10 mV from holding −100 mV, mean ± SEM. The protocol: We maintained human embryonic kidney (HEK) 293 cells at 37 °C in a humidified 5% CO2 incubator in Dulbecco’s Modified Eagle’s Medium (DMEM) supplemented with 10% fetal bovine serum (FBS), 2 mM L-glutamine, 100 units/mL penicillin and 100 µg/mL streptomycin. cDNA genes encoding rat Nav1.2 and mouse Nav1.6 were subcloned into the vectors pcDNA3.1, respectively. We subcloned the gene that encodes hNaV1.7 into the vector pcDNA3.1-mod. We transfected the hNaV1.7 channel (3 μg) together with plasmids β1- (1 μg) and β2-eGFP ([…]), which encode the human β1 and β2 subunits, and Nav1.2 and Nav1.6 together with eGFP in HEK 293 cells using Lipofectamine 2000 (Invitrogen, Carlsbad, CA, USA) per the manufacturer’s instructions.
We performed whole-cell recordings using an EPC 10 patch clamp platform (HEKA, Elektronik, Lambrecht, Germany) at room temperature (20–25 °C). We made suction pipettes with access resistance of 2.0–3.0 MΩ from borosilicate glass capillary tubes (VWR micropipettes; VWR Co., West Chester, PA, USA) using a 2-step vertical microelectrode puller (PC-10; Narishige Co., Ltd., Tokyo, Japan) and compensated for voltage errors using 80% serial-resistance compensation. The standard pipette solution contained (in mM): 140 CsCl, 10 NaCl, 1 ethylene glycol-bis (β-aminoethyl ether)-N,N,N′,N′-tetraacetic acid (EGTA), and 10 HEPES (pH 7.4). The bath solution contained (in mM): 140 NaCl, 2 CaCl2, 1 MgCl2, 5 KCl, 20 4-(2-hydroxyethyl)-1-piperazineethanesulfonic acid (HEPES) and 10 glucose (pH 7.4). We purchased all chemicals from Sigma-Aldrich (St. Louis, MO, USA) and dissolved them in water. Data were acquired using PATCHMASTER software version 2x73 (HEKA Elektronik Dr. Schulze GmbH, Lambrecht, Germany). We filtered macroscopic sodium currents at 5 kHz and sampled them at 20 kHz. We acquired voltage clamp recordings 5 min after establishing a whole-cell configuration to allow adequate equilibration between the micropipette solution and the cell interior. We elicited channel current by 50 milliseconds of depolarization potential to −10 mV from the holding voltage of −100 mV.
We analyzed the data using Igor Pro software version 6.10A (WaveMetrics, Lake Oswego, OR, USA), Sigmaplot software version 10 (Sigma, St. Louis, MO, USA), OriginPro software version 8 (OriginLab Corp., Northampton, MA, USA) and Prism software version 5 (GraphPad Software, San Diego, CA, USA). Concentration–response curves were fitted using the following Hill logistic equation:y = fmax − (fmax − fmin)/(1 + (x/IC50)^n)(1) where fmax and fmin respectively represent the channel’s maximum and minimum responses to toxins, fmin was set to 0, x represents toxin concentration and n is an empirical Hill coefficient. All quantitative results are presented as mean ± standard error of the mean (SEM).
On the technique in general: In patch-clamp work, channel activity is measured electrically.

The subject of experiment [1] is mammalian voltage-gated sodium channels (VGSCs). Particulars: including hNaV1.7; cited from earlier work. The source says:
Pain is a medical condition that interferes with normal human life and work and reduces human well-being worldwide. Human voltage-gated sodium channel NaV1.7 (hNaV1.7) is a compelling target that plays a key role in human pain signaling. […] We engineered analogues of HNTX-I based on sequence conservation in NaSpTx family 1. Substitution of Asn for Ser at position 23 or Asp for His at ... || Previously, we reported the identification of 33-residue peptide µ-TRTX-Hhn2b (HNTX-I), a member of NaSpTx family 1, from the venom of the spider Selenocosmia hainana. Although the amino acid sequence of this family is highly conserved, HNTX-I has shown weak affinity on insect sodium channels and no effect on mammalian voltage-gated sodium channels (VGSCs), unlike the majority of peptide toxins in NaSpTx family 1 [20]. In this study, we used HNTX-I as a framework and engineered analogues of it based on sequence conservation in the family. Ultimately, we engineered a gain-of-function analogue ...

A further experiment has as its system insect sodium channels. Conditions: cited from earlier work. The source says: Previously, we reported the identification of 33-residue peptide µ-TRTX-Hhn2b (HNTX-I), a member of NaSpTx family 1, from the venom of the spider Selenocosmia hainana. Although the amino acid sequence of this family is highly conserved, HNTX-I has shown weak affinity on insect sodium channels and no effect on mammalian voltage-gated sodium channels (VGSCs), unlike the majority of peptide toxins in NaSpTx family 1 [20]. In this study, we used HNTX-I as a framework and engineered analogues of it based on sequence conservation in the family. Ultimately, we engineered a gain-of-function analogue ...

Entries after “also recorded” stand apart in the source; their conditions may differ. Bridge positions count the residues as written; N and C are the ends. Peptide text beside a SMILES is read from it.

T1 sequence (O60939 30-215): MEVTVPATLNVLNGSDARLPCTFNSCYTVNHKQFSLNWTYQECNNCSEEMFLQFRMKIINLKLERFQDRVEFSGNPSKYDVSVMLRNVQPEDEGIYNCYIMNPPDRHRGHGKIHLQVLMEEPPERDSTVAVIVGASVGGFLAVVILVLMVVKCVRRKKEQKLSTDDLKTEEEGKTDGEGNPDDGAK
T1 sequence (Q07699 19-218, further chain): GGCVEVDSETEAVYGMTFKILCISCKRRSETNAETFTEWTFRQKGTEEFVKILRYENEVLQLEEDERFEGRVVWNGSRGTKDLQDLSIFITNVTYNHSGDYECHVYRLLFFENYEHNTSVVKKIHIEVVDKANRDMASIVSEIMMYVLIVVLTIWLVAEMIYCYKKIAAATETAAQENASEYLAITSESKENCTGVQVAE
T1 sequence (Q15858 other isoform, or with tags, fused parts or gaps): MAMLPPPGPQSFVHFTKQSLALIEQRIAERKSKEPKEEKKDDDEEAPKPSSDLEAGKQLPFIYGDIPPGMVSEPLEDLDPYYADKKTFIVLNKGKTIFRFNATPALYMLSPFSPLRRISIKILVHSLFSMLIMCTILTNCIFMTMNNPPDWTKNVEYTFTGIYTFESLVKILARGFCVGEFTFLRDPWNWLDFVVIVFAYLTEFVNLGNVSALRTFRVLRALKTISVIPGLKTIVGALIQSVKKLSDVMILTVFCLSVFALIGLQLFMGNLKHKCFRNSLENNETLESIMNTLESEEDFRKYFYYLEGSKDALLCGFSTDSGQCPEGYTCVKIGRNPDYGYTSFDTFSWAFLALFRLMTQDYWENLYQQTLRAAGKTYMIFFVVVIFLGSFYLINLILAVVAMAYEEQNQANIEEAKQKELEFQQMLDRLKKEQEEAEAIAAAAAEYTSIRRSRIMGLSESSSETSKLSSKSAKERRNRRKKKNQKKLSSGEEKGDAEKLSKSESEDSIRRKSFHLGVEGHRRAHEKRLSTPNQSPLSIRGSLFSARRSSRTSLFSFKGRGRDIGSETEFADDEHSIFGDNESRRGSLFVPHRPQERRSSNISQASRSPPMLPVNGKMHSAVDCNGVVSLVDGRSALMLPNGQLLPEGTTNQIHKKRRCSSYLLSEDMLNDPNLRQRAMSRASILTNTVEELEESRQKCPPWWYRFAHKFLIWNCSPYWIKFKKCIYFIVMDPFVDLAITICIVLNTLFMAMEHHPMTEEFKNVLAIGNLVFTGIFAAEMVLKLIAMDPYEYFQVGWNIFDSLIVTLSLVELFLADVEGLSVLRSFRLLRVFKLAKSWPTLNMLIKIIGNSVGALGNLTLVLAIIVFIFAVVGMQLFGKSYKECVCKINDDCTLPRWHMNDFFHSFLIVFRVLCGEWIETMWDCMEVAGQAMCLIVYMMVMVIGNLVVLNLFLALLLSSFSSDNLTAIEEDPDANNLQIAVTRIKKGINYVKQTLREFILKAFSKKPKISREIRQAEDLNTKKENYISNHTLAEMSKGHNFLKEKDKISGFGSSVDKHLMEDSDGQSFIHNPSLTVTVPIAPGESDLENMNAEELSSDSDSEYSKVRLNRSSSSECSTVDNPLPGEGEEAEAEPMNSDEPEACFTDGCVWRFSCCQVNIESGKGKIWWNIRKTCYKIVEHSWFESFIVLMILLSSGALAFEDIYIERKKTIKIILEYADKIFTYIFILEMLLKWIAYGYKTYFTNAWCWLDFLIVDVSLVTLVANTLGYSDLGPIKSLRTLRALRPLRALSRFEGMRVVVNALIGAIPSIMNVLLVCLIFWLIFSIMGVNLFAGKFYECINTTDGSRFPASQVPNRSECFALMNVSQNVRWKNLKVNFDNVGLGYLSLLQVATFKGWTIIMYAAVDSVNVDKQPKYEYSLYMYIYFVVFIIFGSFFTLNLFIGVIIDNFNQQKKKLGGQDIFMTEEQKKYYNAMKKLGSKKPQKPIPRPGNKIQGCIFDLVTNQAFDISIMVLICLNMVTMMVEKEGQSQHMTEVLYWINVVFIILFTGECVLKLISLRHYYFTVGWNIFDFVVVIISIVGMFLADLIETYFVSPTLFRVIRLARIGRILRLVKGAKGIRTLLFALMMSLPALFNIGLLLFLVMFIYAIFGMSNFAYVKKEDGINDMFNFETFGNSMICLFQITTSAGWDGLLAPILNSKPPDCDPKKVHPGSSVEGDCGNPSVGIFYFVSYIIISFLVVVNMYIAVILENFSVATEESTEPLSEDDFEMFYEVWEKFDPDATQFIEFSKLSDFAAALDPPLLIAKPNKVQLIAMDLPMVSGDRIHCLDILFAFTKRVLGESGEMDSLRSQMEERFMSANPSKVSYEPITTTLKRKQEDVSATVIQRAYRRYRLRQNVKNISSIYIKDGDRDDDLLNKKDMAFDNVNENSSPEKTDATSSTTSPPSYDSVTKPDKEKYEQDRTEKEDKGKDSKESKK

Take `CC(C)C[C@H](NC(=O)[C@H](CC(C)C)NC(=O)[C@@H](NC(=O)[C@H](CCCCN)NC(=O)[C@@H]1CSSC[C@@H]2NC(=O)[C@H](CCC(=O)O)NC(=O)[C@H](CC(N)=O)NC(=O)[C@H](CCCCN)NC(=O)CNC(=O)[C@@H]3CCCN3C(=O)[C@H](C(C)C)NC(=O)[C@@H]3CSSC[C@H](NC(=O)[C@H](C)NC(=O)[C@H](Cc4ccc(O)cc4)NC(=O)CNC(=O)[C@H](CO)NC(=O)[C@H](CSSC[C@H](NC(=O)[C@@H](N)CCC(=O)O)C(=O)N[C@@H](CCCCN)C(=O)NCC(=O)N[C@@H](Cc4ccccc4)C(=O)NCC(=O)N[C@@H](CCCCN)C(=O)N[C@@H](CO)C(=O)N3)NC2=O)C(=O)N[C@@H](CO)C(=O)N[C@@H](CO)C(=O)N[C@@H](CCCNC(=N)N)C(=O)N[C@@H](CC(=O)O)C(=O)N[C@@H](CCCCN)C(=O)N[C@@H](Cc2c[nH]c3ccccc23)C(=O)N1)C(C)C)C(=O)O` [N23S] (H-ECKGFGKSCVPGKNECCSGYACSSRDKWCKVLL-OH; disulfide 2-17, 9-22, 16-29): the IC50 on hNaV1.7 (n ≥ 3, SEM) is 435 ± 72 nM. As for `CC(C)C[C@H](NC(=O)[C@H](CC(C)C)NC(=O)[C@@H](NC(=O)[C@H](CCCCN)NC(=O)[C@@H]1CSSC[C@@H]2NC(=O)[C@H](CCC(=O)O)NC(=O)[C@H](CC(N)=O)NC(=O)[C@H](CCCCN)NC(=O)CNC(=O)[C@@H]3CCCN3C(=O)[C@H](C(C)C)NC(=O)[C@@H]3CSSC[C@H](NC(=O)[C@H](C)NC(=O)[C@H](Cc4ccc(O)cc4)NC(=O)CNC(=O)[C@H](CO)NC(=O)[C@H](CSSC[C@H](NC(=O)[C@@H](N)CCC(=O)O)C(=O)N[C@@H](CCCCN)C(=O)NCC(=O)N[C@@H](Cc4ccccc4)C(=O)NCC(=O)N[C@@H](CCCCN)C(=O)N[C@@H](CO)C(=O)N3)NC2=O)C(=O)N[C@@H](CO)C(=O)N[C@@H](CO)C(=O)N[C@@H](CCCNC(=N)N)C(=O)N[C@@H](Cc2c[nH]cn2)C(=O)N[C@@H](CCCCN)C(=O)N[C@@H](Cc2c[nH]c3ccccc23)C(=O)N1)C(C)C)C(=O)O` [N23S–D26H] (H-ECKGFGKSCVPGKNECCSGYACSSRHKWCKVLL-OH; disulfide 2-17, 9-22, 16-29), at hNaV1.7 (n ≥ 3, SEM), the IC50 worked out at 79 ± 4 nM. Regarding `CC(C)C[C@H](NC(=O)[C@H](Cc1c[nH]c2ccccc12)NC(=O)[C@@H](NC(=O)[C@H](CCCCN)NC(=O)[C@@H]1CSSC[C@@H]2NC(=O)[C@H](CCC(=O)O)NC(=O)[C@H](CC(N)=O)NC(=O)[C@H](CCCCN)NC(=O)CNC(=O)[C@@H]3CCCN3C(=O)[C@H](C(C)C)NC(=O)[C@@H]3CSSC[C@H](NC(=O)[C@H](C)NC(=O)[C@H](Cc4ccc(O)cc4)NC(=O)CNC(=O)[C@H](CO)NC(=O)[C@H](CSSC[C@H](NC(=O)[C@@H](N)CCC(=O)O)C(=O)N[C@@H](CCCCN)C(=O)NCC(=O)N[C@@H](Cc4ccccc4)C(=O)NCC(=O)N[C@@H](CCCCN)C(=O)N[C@@H](CO)C(=O)N3)NC2=O)C(=O)N[C@@H](CO)C(=O)N[C@@H](CO)C(=O)N[C@@H](CCCNC(=N)N)C(=O)N[C@@H](Cc2c[nH]cn2)C(=O)N[C@@H](CCCCN)C(=O)N[C@@H](Cc2c[nH]c3ccccc23)C(=O)N1)C(C)C)C(=O)O` [N23S–D26H–L32W] (H-ECKGFGKSCVPGKNECCSGYACSSRHKWCKVWL-OH; disulfide 2-17, 9-22, 16-29), the IC50 at hNaV1.7 (n ≥ 3, SEM) is 71 ± 5 nM. As to `CC(C)C[C@H](NC(=O)[C@H](CC(C)C)NC(=O)[C@@H](NC(=O)[C@H](CCCCN)NC(=O)[C@@H]1CSSC[C@@H]2NC(=O)[C@H](CCC(=O)O)NC(=O)[C@H](CC(N)=O)NC(=O)[C@H](CCCCN)NC(=O)CNC(=O)[C@@H]3CCCN3C(=O)[C@H](C(C)C)NC(=O)[C@@H]3CSSC[C@H](NC(=O)[C@H](C)NC(=O)[C@H](Cc4ccc(O)cc4)NC(=O)CNC(=O)[C@H](CO)NC(=O)[C@H](CSSC[C@H](NC(=O)[C@@H](N)CCC(=O)O)C(=O)N[C@@H](CCCCN)C(=O)NCC(=O)N[C@@H](Cc4ccccc4)C(=O)NCC(=O)N[C@@H](CCCCN)C(=O)N[C@@H](CO)C(=O)N3)NC2=O)C(=O)N[C@@H](CC(N)=O)C(=O)N[C@@H](CO)C(=O)N[C@@H](CCCNC(=N)N)C(=O)N[C@@H](CC(=O)O)C(=O)N[C@@H](CCCCN)C(=O)N[C@@H](Cc2c[nH]c3ccccc23)C(=O)N1)C(C)C)C(=O)O` [Native HNTX-I] (H-ECKGFGKSCVPGKNECCSGYACNSRDKWCKVLL-OH; disulfide 2-17, 9-22, 16-29 (inferred); N-terminus and C-terminus assumed), in experiment [1], the “Effect on mammalian voltage-gated sodium channels (VGSCs)” value was “negligible activity; also recorded: no effect”. Also, the “Activity on NaV1.7 at a concentration of 10 µM” value at hNaV1.7 (10 µM peptide, HEK 293 cells (Figure 2A–C)) is given as “negligible activity”. Further, the IC50 at hNaV1.7 (n ≥ 3) was greater than 10000 nM. Besides, in the experiment with insect sodium channels, the “Affinity on insect sodium channels” value is “weak affinity”.

For orientation: IC50 means the concentration needed to halve the response being measured.
